Patent US12065443B2, “Compounds and pharmaceutical compositions thereof for the treatment of diseases” (priority 2017, dated 2024)
Read-outs that look alike come from different tables or passages of the source.

Columns and labels:
[1] = tested on: LPS-induced TNFα secretion in monocyte-derived macrophages (MdM); assay: MdM assay: LPS-triggered TNFα (ELISA); assay type: cell-based, human; conditions: Homo sapiens, Macrophage, LPS-triggered TNFα inhibition
Method in brief: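 Human CD14+ monocytes isolated from buffy-coat PBMCs by magnetic beads, differentiated to macrophages; on day 10 compound preincubated 1 h at 37 °C, then LPS 200 ng/mL added (0.2% DMSO). Supernatant taken after 20 h; TNFα quantified by sandwich ELISA against standard curve.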

[2] = tested on: LPS driven TNFα secretion in Peripheral Blood Mononuclear Cells (PBMC); assay: cells; assay type: cell-based; conditions: Homo sapiens, LPS 1 ng/mL, supernatant after 18-20 h, ELISA
Method: This assay measures the inhibition of LPS driven TNFα secretion by a test compound in Peripheral Blood Mononuclear Cells (PBMC), which in turn correlates with SIK inhibition.
PBMCs are isolated from human blood samples (buffy coats). The buffy coat is aseptically transferred into a 50 mL Falcon™ tube, and diluted 1/2 in Phosphate Buffered Saline (PBS). […] The tubes are centrifuged for 35 min at 400× g in temperature controlled centrifuge, without brake, at 25° C. PBMCs are aspirated from the white interface layer between sample and Lymphoprep. PBMCs are washed five times in PBS. […] The PBMCs are finally seeded at 400,000 PBMC/160 μL/96-well.
A compound dilution plate is made in 100% DMSO by 3-fold dilution of 10 mM stock solution of test compound. An intermediate dilution plate (10× final concentration) is made by diluting the compound dilution plate 50-fold in RPMI medium.
20 μL of the 10× final concentration compound is added to the cells and incubated for 1 hour at 37° C. before addition of trigger. No trigger conditions/trigger conditions are spiked with equal final DMSO concentrations of 0.2% DMSO. 20 μL of 10×LPS (final concentration 1 ng/mL) solution are added to all wells except for the ‘no trigger wells’ where 20 μL medium is added. Supernatant is collected after 18-20 h for IL-10 and TNFα determination using ELISA.
The plate is then washed once with PBST (PBS+0.05% Tween20) and once with PBS followed by the addition of 100 μL of blocking buffer (1% Bovine Serum Albumin (BSA)-5% Sucrose) and plates are sealed and incubated for at least 4 h at RT. After washing the plate once with PBST and once with PBS, 40 μL of standard or sample are added (TNFα standard curve is prepared using a 1/2 serial dilution starting from 16000 pg/mL; dilutions are made in dilution buffer (PBS+1% BSA)). Plates are washed twice with PBST, and once with PBS, after which 35 μL of the detection antibody is added (final concentration 0.25 μg/mL diluted in dilution buffer) and plates are incubated for at least 2 h at RT. Plates are washed twice with PBST, and once with PBS, where after 35 μL of Strep-HRP conjugate (0.5 μg/mL final concentration diluted in dilution buffer) is added. Plates are incubated in the dark, at RT for at least 45 min but no longer than 1 hour. Plates are washed twice with PBST, and once with PBS. Thereafter, 50 μL of luminol substrate is added to each well (prepared according to manufacturer's instructions), and incubated for 5 min at RT protected from light.
To measure the inhibition of LPS induced TNFα, percentage inhibition (PIN) values are calculated for all concentrations tested, compared to controls.
PIN values are plotted in concentration-response and EC50 values are derived using GraphPad Prism Software, applying 4-parameter nonlinear regression (sigmoidal) curve fitting.

SIK1 [3] = target: T1, SIK1 (Homo sapiens, UniProt P57059); assay: biochemical
T1 construct: purchased Carna Biosciences 02-131
T1 sequence (P57059 whole entry): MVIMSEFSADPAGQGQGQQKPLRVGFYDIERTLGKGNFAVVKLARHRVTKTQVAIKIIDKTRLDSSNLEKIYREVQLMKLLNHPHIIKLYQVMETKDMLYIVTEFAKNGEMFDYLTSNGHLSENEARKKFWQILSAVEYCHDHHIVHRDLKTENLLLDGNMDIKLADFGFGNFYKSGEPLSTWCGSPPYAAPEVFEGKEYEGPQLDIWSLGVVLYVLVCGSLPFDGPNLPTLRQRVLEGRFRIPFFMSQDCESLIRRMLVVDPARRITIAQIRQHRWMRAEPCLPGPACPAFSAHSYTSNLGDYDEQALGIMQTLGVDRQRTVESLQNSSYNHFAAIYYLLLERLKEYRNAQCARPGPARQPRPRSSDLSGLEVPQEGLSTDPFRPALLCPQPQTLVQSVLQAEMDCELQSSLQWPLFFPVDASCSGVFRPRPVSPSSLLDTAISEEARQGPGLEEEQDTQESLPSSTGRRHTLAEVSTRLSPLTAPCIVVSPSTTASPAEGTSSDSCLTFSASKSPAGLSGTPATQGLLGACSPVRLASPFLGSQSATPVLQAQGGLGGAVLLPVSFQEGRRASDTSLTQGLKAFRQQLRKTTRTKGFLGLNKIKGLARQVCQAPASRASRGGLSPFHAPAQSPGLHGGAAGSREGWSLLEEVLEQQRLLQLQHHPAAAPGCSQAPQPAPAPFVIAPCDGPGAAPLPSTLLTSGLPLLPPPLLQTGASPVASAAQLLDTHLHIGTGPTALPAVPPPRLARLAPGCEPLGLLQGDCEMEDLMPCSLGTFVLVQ
Method in brief: (§1)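 AMARA peptide phosphorylation by SIK1–3 is quantified through ^33P uptake from a labeled/unlabeled ATP blend. Staurosporine at 10 μM final defines full inhibition, 1% DMSO the uninhibited signal. Quench uses phosphoric acid; counting follows filter capture.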

SIK3 [4] = target: T2, SIK3 (Homo sapiens, UniProt Q9Y2K2); assay: biochemical
T2 construct: purchased SignalChem S12-11G-100
T2 sequence (Q9Y2K2 whole entry): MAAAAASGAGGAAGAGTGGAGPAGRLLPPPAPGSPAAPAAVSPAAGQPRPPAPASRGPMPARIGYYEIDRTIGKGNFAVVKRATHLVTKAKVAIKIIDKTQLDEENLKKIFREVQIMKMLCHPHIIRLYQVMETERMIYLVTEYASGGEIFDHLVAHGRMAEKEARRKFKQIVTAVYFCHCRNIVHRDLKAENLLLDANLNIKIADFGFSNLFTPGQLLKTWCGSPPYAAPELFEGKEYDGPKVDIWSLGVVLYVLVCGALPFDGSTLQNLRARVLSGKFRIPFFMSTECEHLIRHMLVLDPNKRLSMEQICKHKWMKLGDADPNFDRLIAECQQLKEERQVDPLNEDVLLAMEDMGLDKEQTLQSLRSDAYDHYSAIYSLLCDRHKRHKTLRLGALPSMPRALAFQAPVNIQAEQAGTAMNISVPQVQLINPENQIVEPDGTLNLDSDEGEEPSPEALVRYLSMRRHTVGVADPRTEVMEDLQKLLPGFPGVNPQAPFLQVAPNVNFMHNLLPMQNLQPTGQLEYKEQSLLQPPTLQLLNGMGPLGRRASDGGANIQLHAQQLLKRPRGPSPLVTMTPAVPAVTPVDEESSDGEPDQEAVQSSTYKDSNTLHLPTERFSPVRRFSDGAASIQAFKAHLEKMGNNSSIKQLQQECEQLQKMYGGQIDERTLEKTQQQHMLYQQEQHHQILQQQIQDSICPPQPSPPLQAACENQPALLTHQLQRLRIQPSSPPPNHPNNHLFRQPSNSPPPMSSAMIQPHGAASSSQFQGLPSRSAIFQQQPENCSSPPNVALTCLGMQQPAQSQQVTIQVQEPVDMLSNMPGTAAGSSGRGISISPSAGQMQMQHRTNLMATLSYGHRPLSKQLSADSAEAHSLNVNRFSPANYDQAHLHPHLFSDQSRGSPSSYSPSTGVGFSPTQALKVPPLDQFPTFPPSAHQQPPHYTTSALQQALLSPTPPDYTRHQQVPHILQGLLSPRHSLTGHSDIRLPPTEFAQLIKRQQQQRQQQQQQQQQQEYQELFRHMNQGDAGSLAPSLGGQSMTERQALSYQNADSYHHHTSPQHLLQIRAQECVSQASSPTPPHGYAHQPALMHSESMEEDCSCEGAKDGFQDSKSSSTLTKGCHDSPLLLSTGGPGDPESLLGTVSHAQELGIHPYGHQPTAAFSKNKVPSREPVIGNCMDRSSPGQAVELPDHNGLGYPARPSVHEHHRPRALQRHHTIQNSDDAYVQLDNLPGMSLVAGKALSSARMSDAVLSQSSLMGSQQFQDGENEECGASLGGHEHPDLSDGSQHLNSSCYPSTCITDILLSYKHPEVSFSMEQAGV
Method in brief: as §1

SIK2 [5] = target: T3, SIK2 (Homo sapiens, UniProt Q9H0K1); assay: biochemical; conditions: 33P radioactive SIK kinase assay, AMARA peptide, 10 μM ATP
T3 construct: purchased ThermoFisher Scientific PV4792
T3 sequence (Q9H0K1 whole entry): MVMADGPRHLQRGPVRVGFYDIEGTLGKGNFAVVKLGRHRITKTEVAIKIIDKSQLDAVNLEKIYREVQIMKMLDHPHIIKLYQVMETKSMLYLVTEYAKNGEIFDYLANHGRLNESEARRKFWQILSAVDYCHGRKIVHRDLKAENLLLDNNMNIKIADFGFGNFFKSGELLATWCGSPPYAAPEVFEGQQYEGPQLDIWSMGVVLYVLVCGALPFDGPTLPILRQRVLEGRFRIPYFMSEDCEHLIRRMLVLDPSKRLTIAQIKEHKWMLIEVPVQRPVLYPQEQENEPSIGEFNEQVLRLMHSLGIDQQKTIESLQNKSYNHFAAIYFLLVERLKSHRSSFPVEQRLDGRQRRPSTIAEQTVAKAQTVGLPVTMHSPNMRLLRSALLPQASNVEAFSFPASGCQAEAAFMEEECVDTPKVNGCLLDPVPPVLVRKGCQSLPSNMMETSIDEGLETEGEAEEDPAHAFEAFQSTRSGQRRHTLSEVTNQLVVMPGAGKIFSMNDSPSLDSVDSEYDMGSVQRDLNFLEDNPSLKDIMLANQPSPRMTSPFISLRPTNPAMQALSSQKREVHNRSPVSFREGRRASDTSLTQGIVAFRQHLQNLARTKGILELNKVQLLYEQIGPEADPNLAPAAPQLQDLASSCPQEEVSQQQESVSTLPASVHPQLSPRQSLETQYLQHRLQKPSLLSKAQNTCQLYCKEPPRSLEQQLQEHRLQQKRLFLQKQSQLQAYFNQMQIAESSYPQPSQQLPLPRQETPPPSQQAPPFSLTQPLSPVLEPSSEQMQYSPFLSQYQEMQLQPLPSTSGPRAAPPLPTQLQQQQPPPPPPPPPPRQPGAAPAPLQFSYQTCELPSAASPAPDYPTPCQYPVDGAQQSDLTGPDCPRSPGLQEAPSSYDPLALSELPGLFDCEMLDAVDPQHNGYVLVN
Method in brief: as §1

SIK1 [6] = target: T1, SIK1; assay: biochemical; conditions: ADP-Glo SIK kinase assay
Method in brief: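 Wells with 1% DMSO or 10 μM staurosporine (final) define the control window. The kinase reaction with substrate and ATP runs 120 min at RT, followed by ADP-Glo detection: ATP depletion (40 min) and ADP-derived luminescence (30 min).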

SIK3 [7] = target: T2, SIK3; assay: biochemical; conditions: ADP-Glo SIK kinase assay
Method in brief: (§2)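 ADP-Glo luminescent assay of ADP formed by SIK2 or SIK3 with substrate after ATP addition, 120 min at RT. Remaining ATP depleted 40 min, then ADP converted to ATP and read by luciferase luminescence after 30 min. Controls: 1% DMSO and 10 μM staurosporine (final).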

SIK2 [8] = target: T3, SIK2; assay: biochemical; conditions: ADP-Glo SIK kinase assay
Method in brief: as §2

[9] = tested on: LPS triggered IL-10 secretion in monocyte-derived macrophages (MdM); assay: MdM assay: LPS-triggered IL-10 (ELISA); assay type: cell-based, human; conditions: maximal fold change vs LPS only, median across assays
Method in brief: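 CD14+ monocytes isolated from human buffy-coat PBMCs and differentiated to macrophages for 10 days. Cells pre-treated with compound 1 h at 37° C (0.2% DMSO), then stimulated with 200 ng/mL LPS; IL-10 in supernatant at 2 h measured by ELISA (A450). Maximal fold change versus LPS only reported as median of two or more runs.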

[10] = 33P radioactive SIK kinase assay, AMARA peptide, 10 μM ATP, read-out: SIK1 IC50

Row | Compound | EC50 [1] | EC50 [2] | IC50 (SIK1 [3]; [10]) | IC50 (SIK3 [4]) | IC50 (SIK2 [5]) | IC50 (SIK1 [6]) | IC50 (SIK3 [7]) | IC50 (SIK2 [8]) | IL-10 FCmax median [9] | IC50 (SIK1 [3])
1 | COc1cc(-n2cnc3cc(-c4cnn(C5CN(CC#N)C5)c4)ccc32)cc(OC)c1C(=O)NCC(F)(F)F [Cpd 100, 4-[5-[1-[1-(cyanomethyl)azetidin-3-yl]pyrazol-4-yl]benzimidazol-1-yl]-2,6-dimethoxy-N-(2,2,2-trifluoroethyl)benzamide] | 100 to 1000 nM | 0.1 to 100 nM | 10 to 100 nM | 0.01 to 10 nM | 0.01 to 10 nM | – | – | – | – | –
2 | COc1cc(-c2cnc3cc(-c4cnn(C)c4)ccn23)cc2c1C(=O)N(CC(F)(F)F)CC2 [Cpd 225, 8-methoxy-6-[7-(1-methylpyrazol-4-yl)imidazo[1,2-a]pyridin-3-yl]-2-(2,2,2-trifluoroethyl)-3,4-dihydroisoquinolin-1-one] | 0.1 to 100 nM | – | 10 to 100 nM | 0.01 to 10 nM | 0.01 to 10 nM | 0.01 to 10 nM | 0.01 to 10 nM | 0.01 to 10 nM | ++ (>1.5-4.5) | –
3 | COc1cc(-n2cnc3cc(-c4cnn(C5CNC5)c4)ccc32)cc(OC)c1C(=O)NCC(F)(F)F [Cpd 94, 4-[5-[1-(azetidin-3-yl)pyrazol-4-yl]benzimidazol-1-yl]-2,6-dimethoxy-N-(2,2,2-trifluoroethyl)benzamide] | 100 to 1000 nM | 0.1 to 100 nM | 0.01 to 10 nM | 0.01 to 10 nM | 0.01 to 10 nM | – | – | – | – | –
4 | COc1cc(-n2cnc3cc(-c4cnn(C)c4)ccc32)cc(OC)c1C(=O)N1CC(C)(C)C1 [compound 179, [2,6-dimcthoxy-4-[5-(1-methylpyrazol-4-yl)benzimidazol-1-yl]phenyl]-(3,3-dimethylazetidin-1-yl)methanone] | 100 to 1000 nM | 100 to 1000 nM | 10 to 100 nM | 10 to 100 nM | 10 to 100 nM | – | – | – | – | –
5 | COc1cc(-n2cnc3cc(-c4cnn(C)c4)ccc32)cc(OC)c1C(=O)N1CC(F)(F)C1 [compound 142, (3,3-difluoroazetidin-1-yl)-[2,6-dimethoxy-4-[5-(1-methylpyrazol-4-yl)benzimidazol-1-yl]phenyl]methanone] | 100 to 1000 nM | – | 10 to 100 nM | 10 to 100 nM | 10 to 100 nM | 10 to 100 nM | 10 to 100 nM | 10 to 100 nM | ++ (>1.5-4.5) | –
6 | CCOC(=O)Cn1cc(-c2ccn3c(-c4cc(OC)c(C(=O)NCC(F)(F)F)c(OC)c4)cnc3c2)cn1 [compound 230, ethyl 2-[4-[3-[3,5-dimethoxy-4-(2,2,2-trifluoroethyl-carbamoyl)phenyl]imidazo[1,2-a]pyridin-7-yl]pyrazol-1-yl]acetate] | 0.1 to 100 nM | – | 0.01 to 10 nM | 0.01 to 10 nM | 0.01 to 10 nM | 0.01 to 10 nM | 0.01 to 10 nM | 0.01 to 10 nM | +++ (>4.5) | –
7 | CNc1cc(-c2cnc3cc(-c4cnn(C)c4)ccn23)cc(OC)c1C(=O)NCC(F)(F)F [Cpd 204] | 0.1 to 100 nM | – | 0.01 to 10 nM | 0.01 to 10 nM | 0.01 to 10 nM | 0.01 to 10 nM | 0.01 to 10 nM | 0.01 to 10 nM | ++ (>1.5-4.5) | –
8 | CCCn1cc(-c2ccc3c(c2)ncn3-c2cc(OC)c(C(=O)NCC(F)(F)F)c(OC)c2)cn1 [compound 103, 2,6-dimethoxy-4-[5-(1-propylpyrazol-4-yl)benzimidazol-1-yl]-N-(2,2,2-trifluoroethyl)benzamide] | 0.1 to 100 nM | 0.1 to 100 nM | 0.01 to 10 nM | 0.01 to 10 nM | 0.01 to 10 nM | – | – | – | – | –
9 | COc1cc(-n2cnc3cc(-c4cc(C)no4)ccc32)cc(OC)c1C(=O)NCC(F)(F)F [compound 109, 2.6-dimethoxy-4-[5-(3-methylisoxazol-5-yl)benzimidazol-1-yl]-N-(2,2,2-trifluoroethyl)benzamide] | 100 to 1000 nM | 100 to 1000 nM | 10 to 100 nM | 10 to 100 nM | 10 to 100 nM | – | – | – | – | –
10 | COc1cc(-n2cnc3cc(-c4cnn(C(F)F)c4)ccc32)cc(OC)c1C(=O)NCC(F)(F)F [compound 97, 4-[5-[1-(difluoromethyl)pyrazol-4-yl]benzimidazol-1-yl]-2,6-dimethoxy-N-(2,2,2-trifluoroethyl)benzamide] | 0.1 to 100 nM | 0.1 to 100 nM | 10 to 100 nM | 0.01 to 10 nM | 0.01 to 10 nM | – | – | – | – | –
11 | COc1cc(-c2cnc3cc(-c4cnn(C)c4)ccn23)cc(OC)c1C(=O)NCC(F)F [compound 133, N-(2,2-difluoroethyl)-2,6-dimethoxy-4-[7-(1-methylpyrazol-4-yl)imidazo[1,2-a]pyridin-3-yl]benzamide] | 0.1 to 100 nM | – | 0.01 to 10 nM | 0.01 to 10 nM | 0.01 to 10 nM | 0.01 to 10 nM | 0.01 to 10 nM | 0.01 to 10 nM | ++ (>1.5-4.5) | –
12 | CCNC(=O)c1c(OC)cc(-c2cnn3cc(-c4cnn(C)c4)ccc23)cc1OC(F)F [compound 117, 2-(difluoromethoxy)-N-ethyl-6-methoxy-4-[6-(1-methylpyrazol-4-yl)pyrazolo[1,5-a]pyridin-3-yl]benzamide] | 0.1 to 100 nM | 0.1 to 100 nM | 0.01 to 10 nM | 0.01 to 10 nM | 0.01 to 10 nM | – | – | – | – | –
13 | COc1cc(-n2cnc3cc(-c4cnn(C(C)C)c4)ccc32)cc(OC)c1C(=O)NCC(F)(F)F [compound 95, 4-[5-(1-isopropylpyrazol-4-yl)benzimidazol-1-yl]-2,6-dimethoxy-N-(2,2,2-trifluoroethyl)benzamide] | 0.1 to 100 nM | 0.1 to 100 nM | – | 0.01 to 10 nM | 0.01 to 10 nM | – | – | – | – | 10 to 100 nM
14 | COc1cc(-c2cnc3cc(-c4cn[nH]c4)ccn23)cc(OC)c1C(=O)NCC(F)(F)F [compound 227, 2,6-dimethoxy-4-[7-(1H-pyrazol-4-yl)imidazo[1,2-a]pyridin-3-yl]-N-(2,2,2-trifluoroethyl)benzamide] | 0.1 to 100 nM | – | 0.01 to 10 nM | 0.01 to 10 nM | 0.01 to 10 nM | 0.01 to 10 nM | 0.01 to 10 nM | 0.01 to 10 nM | +++ (>4.5) | –
15 | CCOC(=O)C(C)n1cc(-c2ccn3c(-c4cc(OC)c(C(=O)NCC(F)(F)F)c(OC)c4)cnc3c2)cn1 (centres unmarked) [compound 263, ethyl 2-[4-[3-[3,5-dimethoxy-4-(2,2,2-trifluoroethyl-carbamoyl)phenyl]imidazo[1,2-a]pyridin-7-yl]pyrazol-1-yl]propanoate] | 0.1 to 100 nM | – | 0.01 to 10 nM | 0.01 to 10 nM | 0.01 to 10 nM | 0.01 to 10 nM | 0.01 to 10 nM | 0.01 to 10 nM | ++ (>1.5-4.5) | –
16 | COc1cc(-n2cnc3cc(-c4cnn(CC(C)C)c4)ccc32)cc(OC)c1C(=O)NCC(F)(F)F [Cpd 110, 4-[5-(1-isobutylpyrazol-4-yl)benzimidazol-1-yl]-2,6-dimethoxy-N-(2,2,2-trifluoroethyl)benzamide] | 100 to 1000 nM | 0.1 to 100 nM | 10 to 100 nM | 0.01 to 10 nM | 0.01 to 10 nM | – | – | – | – | –
17 | COc1cc(-n2cnc3cc(-c4cc(C)n[nH]4)ccc32)cc(OC)c1C(=O)NCC(F)(F)F [compound 101, 2,6-dimethoxy-4-[5-(3-methyl-1H-pyrazol-5-yl)benzimidazol-1-yl]-N-(2,2,2-trifluoroethyl)benzamide] | 0.1 to 100 nM | 0.1 to 100 nM | 10 to 100 nM | 0.01 to 10 nM | 0.01 to 10 nM | – | – | – | – | –
18 | COc1cc(-c2cnc3cc(-c4cnn(C)c4)cnn23)cc(OC)c1C(=O)NCC(F)(F)F [compound 107] | 100 to 1000 nM | 0.1 to 100 nM | 10 to 100 nM | 0.01 to 10 nM | 0.01 to 10 nM | – | – | – | – | –
19 | COc1cc(-c2cnc3cc(-c4cn(C)cn4)ccn23)cc(OC)c1C(=O)N[C@H](C)C(F)(F)F [compound 215, 2,6-dimethoxy-4-[7-(1-methylimidazol-4-yl)imidazo[1,2-a]pyridin-3-yl]-N-[(1R)-2,2,2-trifluoro-1-methyl-ethyl]benzamide] | 100 to 1000 nM | – | 10 to 100 nM | 0.01 to 10 nM | 0.01 to 10 nM | 10 to 100 nM | 0.01 to 10 nM | 0.01 to 10 nM | ++ (>1.5-4.5) | –
